Test results reported in US5326787A, “Cycloalkyl N-hydroxy derivatives having lipoxygenase inhibitory activity” (Abbott Laboratories, priority 1993, dated 1994).

Tests used:
[1] = system: biosynthesis of leukotrienes; assay: Inhibition of leukotriene biosynthesis in vivo after oral administration, rat peritoneal anaphylaxis model; settings: percent inhibition vs mean of control group, oral gavage 100 μmoles/kg one hour prior to antigen challenge, peritoneal fluids 15 minutes after challenge
Protocol: Inhibition of the biosynthesis of leukotrienes in vivo after oral administration of compound was determined using a rat peritoneal anaphylaxis model in a similar manner as that described by Young and coworkers (Young, P. R.; Dyer, R. D.; Carter, G. W. Fed. Proc., Fed. Am. Soc. Exp. Biol. 1985, 44, 1185). In this model rats were injected intraperitoneally (ip) with rabbit antibody to bovine serum albumin (BSA) and three hours later injected ip with BSA to induce an antigen-antibody response. Rats were sacrificed 15 minutes after this challenge and the peritoneal fluids were collected and analyzed for leukotriene levels. Test compounds were administered by gavage one hour prior to the antigen challenge. Percent inhibition values were determined by comparing the treatment group to the mean of the control group.

[2] = biological target: T1, 5-Lipoxygenase (Homo sapiens, UniProt P09917); assay: Calcium ionophore-induced LTB4 biosynthesis in human whole blood; format: cell-based; settings: human heparinized whole blood, 15 min preincubation at 37° C., A23187 8.3 μM, 30 min, LTB4 by radioimmunoassay; read-out: IC50 against 5-Lipoxygenase from Stimulated LTB4 Formation in Human Whole Blood
T1 construct: from tissue; host or cells: human heparinized whole blood (endogenous enzyme of the blood leukocytes)
T1 sequence (P09917 1-674): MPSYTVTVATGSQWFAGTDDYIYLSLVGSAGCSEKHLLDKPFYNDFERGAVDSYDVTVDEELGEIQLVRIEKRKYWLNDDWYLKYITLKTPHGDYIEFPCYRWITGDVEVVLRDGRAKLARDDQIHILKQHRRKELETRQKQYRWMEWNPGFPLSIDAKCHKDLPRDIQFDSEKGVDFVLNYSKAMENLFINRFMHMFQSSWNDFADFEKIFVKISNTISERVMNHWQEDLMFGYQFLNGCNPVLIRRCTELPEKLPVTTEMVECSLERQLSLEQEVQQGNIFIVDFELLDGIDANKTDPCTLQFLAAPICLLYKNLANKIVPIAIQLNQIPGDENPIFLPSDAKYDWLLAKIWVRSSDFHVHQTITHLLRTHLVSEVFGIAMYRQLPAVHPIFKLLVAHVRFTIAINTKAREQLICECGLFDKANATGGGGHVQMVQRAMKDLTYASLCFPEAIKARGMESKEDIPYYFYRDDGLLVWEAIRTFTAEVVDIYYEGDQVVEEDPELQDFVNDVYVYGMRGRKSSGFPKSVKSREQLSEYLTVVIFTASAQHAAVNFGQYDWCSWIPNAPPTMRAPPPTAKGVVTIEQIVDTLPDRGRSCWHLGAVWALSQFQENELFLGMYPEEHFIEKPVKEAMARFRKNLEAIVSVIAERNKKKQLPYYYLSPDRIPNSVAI
Protocol: Inhibition of leukotriene biosynthesis was evaluated in an assay, involving calcium ionophore-induced LTB4 biosynthesis expressed human whole blood. […] The methanol extract was analyzed for LTB4 using a commercially available radioimmunoassay.

Row | Structure (SMILES) | inhibition at 100 µmol/kg [1] | IC50 [2]
1 | NC(=O)N(O)CC1CCCC1 [Example 3, N-cyclopentylmethyl-N-hydroxyurea] | 83% | 700 nM
2 | NC(=O)N(O)C[C@H]1C[C@@H]1C1CC1 (relative stereo) [Example 1, N-1-(trans-2-cyclopropylcyclopropylmethyl)-N-hydroxyurea] | 96% | < 300 nM
3 | NC(=O)N(O)CC1CCCCCC1 [Example 5, N-hydroxy-N-1-(1-cycloheptyl)methylurea] | – | < 1500 nM
4 | NC(=O)N(O)CC1CCC1 [Example 2, N-cyclobutylmethyl-N-hydroxyurea] | 92% | 900 nM
5 | NC(=O)N(O)CC1CCCCC1 [Example 4, N-hydroxy-N-1-(1-cyclohexyl)methylurea] | 64% | 1100 nM
